Legend:
[1] = The drug is tested on Coprococcus comes strain: ATCC27758 for biotransformation. The drug concentrations were measured before and after a 12-h incubation by liquid-chromatography-coupled mass spectrometry (LC–MS); format: ADME; design: dose 2 uM, timepoint 0 vs 12 hours; settings: 2 µM
[2] = akkermansia muciniphila, 12 h, 2 µM
Description: The drug is tested on Akkermansia muciniphila strain: ATCC BAA-835 for biotransformation. The drug concentrations were measured before and after a 12-h incubation by liquid-chromatography-coupled mass spectrometry (LC–MS)

[3] = bacteroides stercoris, 12 h, 2 µM
Description: The drug is tested on Bacteroides stercoris strain: ATCC43183 for biotransformation. The drug concentrations were measured before and after a 12-h incubation by liquid-chromatography-coupled mass spectrometry (LC–MS)

[4] = The drug is tested on Bacteroides fragilis strain: HMW610 for biotransformation. The drug concentrations were measured before and after a 12-h incubation by liquid-chromatography-coupled mass spectrometry (LC–MS); settings: 2 µM
[5] = The drug is tested on Subdoligranulum variabile strain: DSM15176 for biotransformation. The drug concentrations were measured before and after a 12-h incubation by liquid-chromatography-coupled mass spectrometry (LC–MS); settings: 2 µM
[6] = The drug is tested on Blautia luti strain: DSM14534 for biotransformation. The drug concentrations were measured before and after a 12-h incubation by liquid-chromatography-coupled mass spectrometry (LC–MS); format: ADME; design: dose 2 uM, timepoint 0 vs 12 hours; settings: 2 µM
[7] = The drug is tested on Bacteroides coprophilus strain: DSM18228 for biotransformation. The drug concentrations were measured before and after a 12-h incubation by liquid-chromatography-coupled mass spectrometry (LC–MS); settings: 2 µM
[8] = roseburia intestinalis, 12 h, 2 µM
Description: The drug is tested on Roseburia intestinalis strain: L1-82 for biotransformation. The drug concentrations were measured before and after a 12-h incubation by liquid-chromatography-coupled mass spectrometry (LC–MS)

[9] = The drug is tested on Anaerococcus hydrogenalis strain: DSM7454 for biotransformation. The drug concentrations were measured before and after a 12-h incubation by liquid-chromatography-coupled mass spectrometry (LC–MS); settings: 2 µM
[10] = segatella copri, 12 h, 2 µM
Description: The drug is tested on Prevotella copri strain: DSM18205 for biotransformation. The drug concentrations were measured before and after a 12-h incubation by liquid-chromatography-coupled mass spectrometry (LC–MS)

[11] = The drug is tested on Clostridium asparagiforme strain: DSM15981 for biotransformation. The drug concentrations were measured before and after a 12-h incubation by liquid-chromatography-coupled mass spectrometry (LC–MS); format: ADME; design: dose 2 uM, timepoint 0 vs 12 hours; settings: enterocloster asparagiformis, 2 µM
[12] = limosilactobacillus reuteri cf48-3a, 12 h, 2 µM
Description: The drug is tested on Lactobacillus reuteri CF48-3A strain: BEI HM-102 for biotransformation. The drug concentrations were measured before and after a 12-h incubation by liquid-chromatography-coupled mass spectrometry (LC–MS)

[13] = bacteroides thetaiotaomicron, 12 h, 2 µM
Description: The drug is tested on Bacteroides thetaiotaomicron strain: 7330 for biotransformation. The drug concentrations were measured before and after a 12-h incubation by liquid-chromatography-coupled mass spectrometry (LC–MS)

[14] = The drug is tested on Clostridium sporogenes strain: ATCC15579 for biotransformation. The drug concentrations were measured before and after a 12-h incubation by liquid-chromatography-coupled mass spectrometry (LC–MS); settings: 2 µM
[15] = The drug is tested on Eubacterium ventriosum strain: ATCC27560 for biotransformation. The drug concentrations were measured before and after a 12-h incubation by liquid-chromatography-coupled mass spectrometry (LC–MS); format: ADME; design: dose 2 uM, timepoint 0 vs 12 hours; settings: 2 µM
[16] = bacteroides intestinalis, 12 h, 2 µM
Description: The drug is tested on Bacteroides intestinalis strain: DSM17393 for biotransformation. The drug concentrations were measured before and after a 12-h incubation by liquid-chromatography-coupled mass spectrometry (LC–MS)

[17] = The drug is tested on Ruminococcus gnavus strain: ATCC29149 for biotransformation. The drug concentrations were measured before and after a 12-h incubation by liquid-chromatography-coupled mass spectrometry (LC–MS); settings: mediterraneibacter gnavus, 2 µM
[18] = The drug is tested on Dorea formicigenerans strain: ATCC27755 for biotransformation. The drug concentrations were measured before and after a 12-h incubation by liquid-chromatography-coupled mass spectrometry (LC–MS); settings: 2 µM
[19] = The drug is tested on Bacteroides finegoldii strain: DSM17565 for biotransformation. The drug concentrations were measured before and after a 12-h incubation by liquid-chromatography-coupled mass spectrometry (LC–MS); settings: 2 µM
[20] = The drug is tested on Collinsella intestinalis strain: DSM13280 for biotransformation. The drug concentrations were measured before and after a 12-h incubation by liquid-chromatography-coupled mass spectrometry (LC–MS); settings: 2 µM

N[C@@H](Cc1ccc(N(CCCl)CCCl)cc1)C(=O)O
Bacterial Biotransformation [1]: Compound metabolized
Bacterial Biotransformation [2]: Compound metabolized
Bacterial Biotransformation [3]: Compound metabolized
Bacterial Biotransformation [4]: Compound metabolized
Bacterial Biotransformation [5]: Compound metabolized
Bacterial Biotransformation [6]: Compound metabolized
Bacterial Biotransformation [7]: Compound metabolized
Bacterial Biotransformation [8]: Compound metabolized
Bacterial Biotransformation [9]: Compound metabolized
Bacterial Biotransformation [10]: Compound metabolized
Bacterial Biotransformation [11]: Compound metabolized
Bacterial Biotransformation [12]: Compound metabolized
Bacterial Biotransformation [13]: Compound metabolized
Bacterial Biotransformation [14]: Compound metabolized
Bacterial Biotransformation [15]: Compound metabolized
Bacterial Biotransformation [16]: Compound metabolized
Bacterial Biotransformation [17]: Compound metabolized
Bacterial Biotransformation [18]: Compound metabolized
Bacterial Biotransformation [19]: Compound metabolized
Bacterial Biotransformation [20]: Compound metabolized

CCCC(=O)Nc1ccc(OCC(O)CNC(C)C)c(C(C)=O)c1 (stereo not given) [ACEBUTOLOL]
Bacterial Biotransformation [1]: Compound NOT metabolized
Bacterial Biotransformation [2]: Compound NOT metabolized
Bacterial Biotransformation [3]: Compound NOT metabolized
Bacterial Biotransformation [4]: Compound NOT metabolized
Bacterial Biotransformation [5]: Compound NOT metabolized
Bacterial Biotransformation [6]: Compound NOT metabolized
Bacterial Biotransformation [7]: Compound NOT metabolized
Bacterial Biotransformation [8]: Compound NOT metabolized
Bacterial Biotransformation [9]: Compound NOT metabolized
Bacterial Biotransformation [10]: Compound NOT metabolized
Bacterial Biotransformation [11]: Compound NOT metabolized
Bacterial Biotransformation [12]: Compound NOT metabolized
Bacterial Biotransformation [13]: Compound NOT metabolized
Bacterial Biotransformation [14]: Compound NOT metabolized
Bacterial Biotransformation [15]: Compound NOT metabolized
Bacterial Biotransformation [16]: Compound NOT metabolized
Bacterial Biotransformation [17]: Compound NOT metabolized
Bacterial Biotransformation [18]: Compound NOT metabolized
Bacterial Biotransformation [19]: Compound NOT metabolized
Bacterial Biotransformation [20]: Compound NOT metabolized

C[C@@H]1CC[C@H]2[C@@H](C)C(=O)O[C@@H]3O[C@@]4(C)CC[C@@H]1[C@]32OO4 [ARTEMISININ]
Bacterial Biotransformation [1]: Compound metabolized
Bacterial Biotransformation [2]: Compound metabolized
Bacterial Biotransformation [3]: Compound metabolized
Bacterial Biotransformation [4]: Compound metabolized
Bacterial Biotransformation [5]: Compound metabolized
Bacterial Biotransformation [6]: Compound metabolized
Bacterial Biotransformation [7]: Compound metabolized
Bacterial Biotransformation [8]: Compound metabolized
Bacterial Biotransformation [9]: Compound metabolized
Bacterial Biotransformation [10]: Compound metabolized
Bacterial Biotransformation [11]: Compound metabolized
Bacterial Biotransformation [12]: Compound metabolized
Bacterial Biotransformation [13]: Compound metabolized
Bacterial Biotransformation [14]: Compound metabolized
Bacterial Biotransformation [15]: Compound metabolized
Bacterial Biotransformation [16]: Compound metabolized
Bacterial Biotransformation [17]: Compound metabolized
Bacterial Biotransformation [18]: Compound metabolized
Bacterial Biotransformation [19]: Compound metabolized
Bacterial Biotransformation [20]: Compound metabolized

CCOC(=O)[C@H](CCc1ccccc1)N[C@H]1CCc2ccccc2N(CC(=O)O)C1=O [BENAZEPRIL]
Bacterial Biotransformation [1]: Compound NOT metabolized
Bacterial Biotransformation [2]: Compound NOT metabolized
Bacterial Biotransformation [3]: Compound metabolized
Bacterial Biotransformation [4]: Compound metabolized
Bacterial Biotransformation [5]: Compound NOT metabolized
Bacterial Biotransformation [7]: Compound metabolized
Bacterial Biotransformation [8]: Compound metabolized
Bacterial Biotransformation [9]: Compound NOT metabolized
Bacterial Biotransformation [10]: Compound metabolized
Bacterial Biotransformation [11]: Compound metabolized
Bacterial Biotransformation [12]: Compound NOT metabolized
Bacterial Biotransformation [13]: Compound metabolized
Bacterial Biotransformation [14]: Compound metabolized
Bacterial Biotransformation [15]: Compound NOT metabolized
Bacterial Biotransformation [16]: Compound metabolized
Bacterial Biotransformation [17]: Compound NOT metabolized
Bacterial Biotransformation [18]: Compound NOT metabolized
Bacterial Biotransformation [19]: Compound metabolized
Bacterial Biotransformation [20]: Compound NOT metabolized

CC(C)C[C@H]1C(=O)N2CCC[C@H]2[C@]2(O)O[C@](NC(=O)[C@@H]3C=C4c5cccc6[nH]c(Br)c(c56)C[C@H]4N(C)C3)(C(C)C)C(=O)N12.CS(=O)(=O)O [BROMOCRIPTINE MESYLATE]
Bacterial Biotransformation [2]: Compound metabolized
Bacterial Biotransformation [3]: Compound metabolized
Bacterial Biotransformation [4]: Compound metabolized
Bacterial Biotransformation [5]: Compound metabolized
Bacterial Biotransformation [6]: Compound metabolized
Bacterial Biotransformation [7]: Compound metabolized
Bacterial Biotransformation [8]: Compound metabolized
Bacterial Biotransformation [9]: Compound metabolized
Bacterial Biotransformation [10]: Compound metabolized
Bacterial Biotransformation [11]: Compound metabolized
Bacterial Biotransformation [12]: Compound metabolized
Bacterial Biotransformation [13]: Compound metabolized
Bacterial Biotransformation [14]: Compound metabolized
Bacterial Biotransformation [15]: Compound metabolized
Bacterial Biotransformation [16]: Compound metabolized
Bacterial Biotransformation [17]: Compound metabolized
Bacterial Biotransformation [18]: Compound metabolized
Bacterial Biotransformation [19]: Compound metabolized
Bacterial Biotransformation [20]: Compound metabolized

CNCCC(Oc1ccc(C(F)(F)F)cc1)c1ccccc1 (stereo not given) [FLUOXETINE]
Bacterial Biotransformation [2]: Compound metabolized
Bacterial Biotransformation [3]: Compound metabolized
Bacterial Biotransformation [4]: Compound metabolized
Bacterial Biotransformation [5]: Compound metabolized
Bacterial Biotransformation [6]: Compound NOT metabolized
Bacterial Biotransformation [7]: Compound metabolized
Bacterial Biotransformation [8]: Compound metabolized
Bacterial Biotransformation [9]: Compound NOT metabolized
Bacterial Biotransformation [10]: Compound metabolized
Bacterial Biotransformation [11]: Compound metabolized
Bacterial Biotransformation [12]: Compound metabolized
Bacterial Biotransformation [13]: Compound metabolized
Bacterial Biotransformation [14]: Compound metabolized
Bacterial Biotransformation [15]: Compound metabolized
Bacterial Biotransformation [16]: Compound metabolized
Bacterial Biotransformation [17]: Compound metabolized
Bacterial Biotransformation [18]: Compound metabolized
Bacterial Biotransformation [19]: Compound NOT metabolized
Bacterial Biotransformation [20]: Compound NOT metabolized

Cc1nc2n(c(=O)c1CCN1CCC(c3noc4cc(F)ccc34)CC1)CCCC2O (stereo not given) [PALIPERIDONE]
Bacterial Biotransformation [1]: Compound metabolized
Bacterial Biotransformation [2]: Compound metabolized
Bacterial Biotransformation [3]: Compound metabolized
Bacterial Biotransformation [4]: Compound NOT metabolized
Bacterial Biotransformation [5]: Compound metabolized
Bacterial Biotransformation [6]: Compound metabolized
Bacterial Biotransformation [7]: Compound NOT metabolized
Bacterial Biotransformation [8]: Compound metabolized
Bacterial Biotransformation [9]: Compound metabolized
Bacterial Biotransformation [10]: Compound metabolized
Bacterial Biotransformation [11]: Compound metabolized
Bacterial Biotransformation [12]: Compound NOT metabolized
Bacterial Biotransformation [13]: Compound NOT metabolized
Bacterial Biotransformation [14]: Compound metabolized
Bacterial Biotransformation [16]: Compound metabolized
Bacterial Biotransformation [17]: Compound metabolized
Bacterial Biotransformation [18]: Compound metabolized
Bacterial Biotransformation [19]: Compound metabolized
Bacterial Biotransformation [20]: Compound NOT metabolized

Cc1nc2n(c(=O)c1CCN1CCC(c3noc4cc(F)ccc34)CC1)CCCC2 [RISPERIDONE]
Bacterial Biotransformation [1]: Compound metabolized
Bacterial Biotransformation [2]: Compound NOT metabolized
Bacterial Biotransformation [3]: Compound NOT metabolized
Bacterial Biotransformation [4]: Compound metabolized
Bacterial Biotransformation [5]: Compound metabolized
Bacterial Biotransformation [6]: Compound metabolized
Bacterial Biotransformation [7]: Compound NOT metabolized
Bacterial Biotransformation [8]: Compound metabolized
Bacterial Biotransformation [9]: Compound metabolized
Bacterial Biotransformation [10]: Compound NOT metabolized
Bacterial Biotransformation [11]: Compound metabolized
Bacterial Biotransformation [12]: Compound NOT metabolized
Bacterial Biotransformation [13]: Compound NOT metabolized
Bacterial Biotransformation [14]: Compound metabolized
Bacterial Biotransformation [15]: Compound NOT metabolized
Bacterial Biotransformation [16]: Compound NOT metabolized
Bacterial Biotransformation [17]: Compound metabolized
Bacterial Biotransformation [19]: Compound NOT metabolized
Bacterial Biotransformation [20]: Compound metabolized

From ChEMBL document CHEMBL5303573, “Mapping human microbiome drug metabolism by gut bacteria and their genes” (Nature, 2019)
